Measurements as given in article PMC4183655, “Discovery and Optimization of Small-Molecule Ligands for the CBP/p300 Bromodomains” (Journal of the American Chemical Society, 2014).
Read-outs that look alike come from different tables or passages of the source. Each block holds one compound with its values, some of them ahead of it.

Legend:
[1] = system: GFP-tagged 3 × CBP BRD construct; assay: Fluorescence recovery after photo-bleaching (FRAP) assay; conditions: HeLa cells, SAHA-treated, compound 0.1 μM
BRD4(1) [2] = target: T1, BRD4(1) (Homo sapiens, UniProt O60885); assay: DSF (ΔTm) thermal stability assay; assay type: binding; conditions: compound concentration 10 μM; mean ± SEM (number of measurements)
[3] = Human liver microsome (HLM) stability assay; assay type: in vitro ADME; conditions: microsomes, 1 h
PDE5 (h) (non-selective) = target: T2, PDE5 (h) (non-selective) (Homo sapiens, UniProt O76074); assay: Cerep profiling; assay type: biochemical
T2 construct: CEREP (BioPrint Full Panel, contract assay)

BRD2(1) = target: T3, BRD2(1) (Homo sapiens, UniProt P25440); assay: DSF (ΔTm) selectivity panel; assay type: binding; conditions: compound 10 µM
T3 construct: using recombinant BRDs as surrogates of full-length protein
T3 sequence (P25440 74-180 limits assumed): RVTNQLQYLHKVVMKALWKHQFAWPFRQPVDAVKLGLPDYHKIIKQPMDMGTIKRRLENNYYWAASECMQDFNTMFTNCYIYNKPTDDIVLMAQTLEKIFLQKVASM

[4] = system: p53-driven luciferase activity in RKO cells; assay: p53 luciferase reporter assay; assay type: cell-based, human; conditions: compound 24 h then doxorubicin 0.3 μM 16 h, read-out: Inhibition of doxorubicin-induced p53-driven luciferase activity IC50
Protocol: Refinement was carried out in
refinement cycles. […] The
Cell culture and reagents
Fluorescence Recovery After Photobleaching (FRAP) Assay
In brief RKO cells were transfected with
well plate format using Fugene HD (Roche).
Compounds were dissolved in dimethyl sulfoxide
5 ul of compound solution was added
mixing plates returned to the incubator.

PAF (h) = PAF (h) (Homo sapiens, UniProt P25105); assay: Cerep profiling, agonist radioligand
Sequence of PAF (h) (P25105 whole entry): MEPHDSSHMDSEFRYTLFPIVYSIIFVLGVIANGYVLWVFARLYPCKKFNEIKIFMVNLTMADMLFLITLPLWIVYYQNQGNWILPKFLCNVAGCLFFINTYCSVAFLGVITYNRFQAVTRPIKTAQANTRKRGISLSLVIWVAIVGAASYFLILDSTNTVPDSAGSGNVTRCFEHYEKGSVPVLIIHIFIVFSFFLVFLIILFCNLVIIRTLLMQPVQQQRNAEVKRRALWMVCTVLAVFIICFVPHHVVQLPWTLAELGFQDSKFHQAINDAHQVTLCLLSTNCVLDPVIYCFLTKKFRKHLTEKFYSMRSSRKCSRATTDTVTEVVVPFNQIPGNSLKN

Cytotoxicity assay = conditions: human, U2OS osteosarcoma cells
alpha 2C (h) = target: T4, alpha 2C (h) (Homo sapiens, UniProt P18825); assay: Cerep profiling, antagonist radioligand; assay type: binding
T4 construct: CEREP (BioPrint Full Panel, contract assay)
T4 sequence (P18825 whole entry): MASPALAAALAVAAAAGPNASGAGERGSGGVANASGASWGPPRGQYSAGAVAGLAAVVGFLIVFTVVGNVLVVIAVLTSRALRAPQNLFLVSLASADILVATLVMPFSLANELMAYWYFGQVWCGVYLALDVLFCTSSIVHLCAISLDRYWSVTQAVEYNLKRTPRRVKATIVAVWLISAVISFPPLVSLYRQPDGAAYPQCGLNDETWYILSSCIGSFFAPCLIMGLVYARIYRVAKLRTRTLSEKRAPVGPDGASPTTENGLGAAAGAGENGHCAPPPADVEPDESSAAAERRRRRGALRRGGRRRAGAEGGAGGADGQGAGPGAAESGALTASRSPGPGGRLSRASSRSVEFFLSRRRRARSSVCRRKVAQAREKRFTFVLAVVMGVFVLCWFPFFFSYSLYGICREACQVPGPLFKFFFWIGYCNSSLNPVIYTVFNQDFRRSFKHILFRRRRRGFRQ

alpha 2A (h) = target: T5, alpha 2A (h) (Homo sapiens, UniProt P08913); assay: Cerep profiling, antagonist radioligand; assay type: binding
T5 construct: CEREP (BioPrint Full Panel, contract assay)
T5 sequence (P08913 whole entry): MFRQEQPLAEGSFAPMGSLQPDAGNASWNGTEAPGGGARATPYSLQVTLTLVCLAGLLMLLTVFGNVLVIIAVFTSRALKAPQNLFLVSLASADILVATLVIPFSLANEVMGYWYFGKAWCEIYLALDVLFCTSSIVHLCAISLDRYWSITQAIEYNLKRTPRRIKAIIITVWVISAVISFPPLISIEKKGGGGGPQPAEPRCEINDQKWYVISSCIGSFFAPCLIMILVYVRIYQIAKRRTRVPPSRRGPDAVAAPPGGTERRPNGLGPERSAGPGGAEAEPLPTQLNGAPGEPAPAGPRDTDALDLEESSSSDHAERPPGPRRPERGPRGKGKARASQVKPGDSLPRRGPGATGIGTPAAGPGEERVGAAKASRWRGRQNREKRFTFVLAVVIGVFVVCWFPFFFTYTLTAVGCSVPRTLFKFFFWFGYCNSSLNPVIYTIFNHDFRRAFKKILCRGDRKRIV

BRD3(1) = target: T6, BRD3(1) (Homo sapiens, UniProt Q15059); assay: DSF (ΔTm) selectivity panel; assay type: binding; conditions: compound 10 µM
T6 construct: using recombinant BRDs as surrogates of full-length protein
T6 sequence (Q15059 34-140 limits assumed): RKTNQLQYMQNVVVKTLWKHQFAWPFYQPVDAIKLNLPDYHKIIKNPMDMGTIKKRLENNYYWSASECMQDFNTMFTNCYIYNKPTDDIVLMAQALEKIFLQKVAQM

CBP [5] = target: T7, CBP (Homo sapiens, UniProt Q92793); assay: Peptide displacement AlphaScreen; assay type: binding; conditions: read-out: AlphaScreen IC50 CBP
T7 sequence (Q92793 1085-1192 limits assumed): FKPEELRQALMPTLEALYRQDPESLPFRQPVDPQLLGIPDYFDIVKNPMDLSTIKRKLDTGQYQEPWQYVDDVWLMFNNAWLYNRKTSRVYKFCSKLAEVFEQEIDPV

CBP [6] = target: T7, CBP; assay: DSF (ΔTm) thermal stability assay; assay type: binding; conditions: compound concentration 10 μM; mean ± SEM (number of measurements)
BAZ2A [7] = target: T8, BAZ2A (Homo sapiens, UniProt Q9UIF9); assay: Peptide displacement AlphaScreen; assay type: binding
T8 construct: using recombinant BRDs as surrogates of full-length protein
T8 sequence (Q9UIF9 1793-1897 limits assumed): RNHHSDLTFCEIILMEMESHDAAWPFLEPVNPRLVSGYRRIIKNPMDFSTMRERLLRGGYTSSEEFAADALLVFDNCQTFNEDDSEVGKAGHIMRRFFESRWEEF

BAZ2A [8] = target: T8, BAZ2A; assay: DSF (ΔTm) thermal stability assay; assay type: binding; conditions: compound 10 µM
ATAD2 [9] = target: T9, ATAD2 (Homo sapiens, UniProt Q6PL18); assay: Peptide displacement AlphaScreen; assay type: binding
T9 construct: using recombinant BRDs as surrogates of full-length protein
T9 sequence (Q6PL18 980-1092 limits assumed): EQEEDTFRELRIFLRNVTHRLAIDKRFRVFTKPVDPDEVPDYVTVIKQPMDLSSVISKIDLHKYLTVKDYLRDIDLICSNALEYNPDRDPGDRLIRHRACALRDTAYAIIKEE

BRD4(1) [10] = target: T1, BRD4(1); assay: Peptide displacement AlphaScreen; assay type: binding
ATAD2 [11] = target: T9, ATAD2; assay: DSF (ΔTm) thermal stability assay; assay type: binding; conditions: compound 10 µM
BRD9 [12] = target: T10, BRD9 (Homo sapiens, UniProt Q9H8M2); assay: Peptide displacement AlphaScreen; assay type: binding
T10 construct: using recombinant BRDs as surrogates of full-length protein
T10 sequence (Q9H8M2 136-240 limits assumed): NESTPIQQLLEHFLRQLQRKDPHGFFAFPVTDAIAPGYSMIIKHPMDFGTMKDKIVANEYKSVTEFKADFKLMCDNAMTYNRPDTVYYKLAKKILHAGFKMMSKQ

BRD9 [13] = target: T10, BRD9; assay: DSF (ΔTm) selectivity panel; assay type: binding; conditions: compound 10 µM
CECR2 [14] = target: T11, CECR2 (Homo sapiens, UniProt Q9BXF3); assay: Peptide displacement AlphaScreen; assay type: binding
T11 construct: using recombinant BRDs as surrogates of full-length protein
T11 sequence (Q9BXF3 434-538 limits assumed): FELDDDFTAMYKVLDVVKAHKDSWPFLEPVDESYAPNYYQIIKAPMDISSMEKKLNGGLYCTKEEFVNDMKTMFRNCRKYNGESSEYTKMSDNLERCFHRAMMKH

p300 [15] = target: T12, p300 (Homo sapiens, UniProt Q09472); assay: Peptide displacement AlphaScreen; assay type: binding
T12 sequence (Q09472 1049-1156 limits assumed): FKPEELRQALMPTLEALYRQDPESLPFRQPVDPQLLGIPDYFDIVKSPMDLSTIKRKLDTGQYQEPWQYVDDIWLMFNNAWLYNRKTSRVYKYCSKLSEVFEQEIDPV

CECR2 [16] = target: T11, CECR2; assay: DSF (ΔTm) selectivity panel; assay type: binding; conditions: compound 10 µM
BRD4(1) [17] = target: T1, BRD4(1); assay: Isothermal titration calorimetry (ITC)
p300 [18] = target: T12, p300; assay: DSF (ΔTm) thermal stability assay; assay type: binding; conditions: compound 10 µM
p300 [19] = target: T12, p300; assay: Isothermal titration calorimetry (ITC)
CBP [20] = target: T7, CBP; assay: Isothermal titration calorimetry (ITC)

Compound: COc1ccc(CCc2nc3cc(-c4c(C)noc4C)ccc3n2C[C@H](C)N2CCOCC2)cc1Cl [Compound 59]
FRAP half-time of fluorescence recovery (t1/2), GFP-tagged 3× CBP BRD [1]: 0.60 s
ΔTm at 10 µM (BRD4(1) [2]): 1 to 2 °C
HLM stability: compound detected after 60 min [3]: no compound was detected
IC50 (PDE5 (h) (non-selective)): 150 nM
ΔTm at 10 µM (BRD2(1)): 1 to 2 °C
IC50 ([4]; Homo sapiens, RKO): 1540 nM
IC50 [4]: 1500 nM
IC50 (PAF (h)): 540 nM
CC50 at 24 h (Cytotoxicity assay): 80000 nM
CC50 at 72 h (Cytotoxicity assay): 8100 nM
IC50 (alpha 2C (h)): 110 nM
IC50 (alpha 2A (h)): 570 nM
ΔTm at 10 µM (BRD3(1)): 1 to 2 °C

ΔTm at 10 µM (BRD4(1) [2]): 1.2 °C
IC50 (CBP [5]): 2000 nM
ΔTm at 10 µM (CBP [6]): 2 °C
IC50 (BAZ2A [7]): 14000 nM
ΔTm at 10 µM (BAZ2A [8]): -0.52 °C
IC50 (ATAD2 [9]): 19000 nM
IC50 (BRD4(1) [10]): 4100 nM
ΔTm at 10 µM (ATAD2 [11]): 0.03 °C
Compound: Cc1noc(C)c1-c1ccc2c(c1)nc(CCc1ccccc1)n2CCN1CCN(C)CC1 [Compound 18]

ΔTm at 10 µM (BRD4(1) [2]): 2.7 °C
IC50 (CBP [5]): 840 nM
ΔTm at 10 µM (CBP [6]): 5.4 °C
IC50 (BRD9 [12]): 100000 nM
IC50 (BRD4(1) [10]): 9100 nM
ΔTm at 10 µM (BRD9 [13]): 1.5 °C
Compound: Cc1noc(C)c1-c1ccc2c(c1)nc(CCc1ccccc1)n2CCN1CCCC1 [Compound 15]

ΔTm at 10 µM (BRD4(1) [2]): 2.7 °C
IC50 (CBP [5]): 180 nM
ΔTm at 10 µM (CBP [6]): 6.5 °C
IC50 (CECR2 [14]): 12000 nM
IC50 (p300 [15]): 140 nM
ΔTm at 10 µM (CECR2 [16]): 1 °C
ITC N (molar binding ratio of the ligand-protein interaction), BRD4(1) (BRD4(1) [17]): 1.10 ± 0.005
ITC ∆G, BRD4(1) (BRD4(1) [17]): -8.01 kcal/mol
ITC ∆H, BRD4(1) (BRD4(1) [17]): -5.86 ± 0.0338 kcal/mol
ITC 9T∆S, BRD4(1) (BRD4(1) [17]; At T = 298.15 K): -2.15 kcal/mol
Kd (BRD4(1) [17]; ITC Ka, BRD4(1)): 952 nM
ΔTm at 10 µM (p300 [18]): 7.9 °C
ITC N (molar binding ratio of the ligand-protein interaction), p300 (p300 [19]): 1.00 ± 0.0028
ITC ∆G, p300 (p300 [19]): -8.60 kcal/mol
ITC ∆H, p300 (p300 [19]): -6.09 ± 0.0245 kcal/mol
Kd (p300 [19]): 347 nM
ITC 9T∆S, p300 (p300 [19]; At T = 298.15 K): -2.51 kcal/mol
IC50 (BRD9 [12]): > 25000 nM
IC50 (BRD4(1) [10]): 2400 nM
ITC N (molar binding ratio of the ligand-protein interaction), CBP (CBP [20]): 1.00 ± 0.00223
ITC ∆G, CBP (CBP [20]): -8.66 kcal/mol
ITC ∆H, CBP (CBP [20]): -5.76 ± 0.0184 kcal/mol
ITC 9T∆S, CBP (CBP [20]; At T = 298.15 K): -2.90 kcal/mol
Kd (CBP [20]; ITC Ka, CBP): 323 nM
Compound: Cc1noc(C)c1-c1ccc2c(c1)nc(CCc1ccccc1)n2CCN1CCCCC1 [Compound 16]
